Test results: US5047534A (Merrell Dow Pharmaceuticals Inc., priority 1990, dated 1991)
Where two headings read alike, the source gives them in different places.

Experiments:
adenosine A-2 receptors = target: T1, adenosine A-2 receptors (Rattus norvegicus, UniProt P30543); assay: Test for affinity for brain adenosine A-2 receptors ([3H]NECA displacement, striatal membranes); assay type: binding; settings: read-out: A2 Ki
T1 construct: tissue Charles River (animals); host or cells: brain striatum membranes, young male rats (C-D strain)
T1 sequence (P30543 whole entry): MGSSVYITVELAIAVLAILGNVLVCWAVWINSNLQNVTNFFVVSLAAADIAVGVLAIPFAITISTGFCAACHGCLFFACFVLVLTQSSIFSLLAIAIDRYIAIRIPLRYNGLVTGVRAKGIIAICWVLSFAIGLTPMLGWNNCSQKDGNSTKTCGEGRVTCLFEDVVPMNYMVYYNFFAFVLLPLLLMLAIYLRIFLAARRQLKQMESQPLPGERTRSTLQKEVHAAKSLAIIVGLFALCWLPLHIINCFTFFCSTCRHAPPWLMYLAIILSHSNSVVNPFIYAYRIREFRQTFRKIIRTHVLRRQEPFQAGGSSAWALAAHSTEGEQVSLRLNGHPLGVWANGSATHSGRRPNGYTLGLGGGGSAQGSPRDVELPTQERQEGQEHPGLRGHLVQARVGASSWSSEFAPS
Protocol: Membranes for ligand binding are isolated from rat brain striatum. The tissue is homogenized in 20 vol icecold 50 mM Tris-HCl buffer (pH 7.7) using a polytron (setting for 6 to 20 seconds). The homogenate is centrifuged at 50,000 x g for 10 minutes at 4° C. The pellet is again homogenized in a polytron in 20 vol of buffer, and centrifuged as before. The pellet is finally resuspended in 40 vol of 50mM Tris-HCl (pH 7.7) per gram of original wet weight of tissue.
Incubations are carried out at 25° C. for 60 minutes. Each tube is filtered through GF/B glass fiber filters using a vacuum. The filters are rinsed two times with 5 ml of the ice-cold buffer. […] The filters are counted by liquid scintillation spectrometry.
Specific binding of [3H]NECA is measured as the excess over blanks run in the presence of 100 μM 2-chloroadenosine. Total membrane-bound radioactivity is about 2.5% of that added to the test tubes. […] Specific binding to membranes is about 50% of the total bound.

Adenosine A-1 receptor [1] = target: T2, Adenosine A-1 receptor (Rattus norvegicus, UniProt P25099)
T2 sequence (P25099 1-326): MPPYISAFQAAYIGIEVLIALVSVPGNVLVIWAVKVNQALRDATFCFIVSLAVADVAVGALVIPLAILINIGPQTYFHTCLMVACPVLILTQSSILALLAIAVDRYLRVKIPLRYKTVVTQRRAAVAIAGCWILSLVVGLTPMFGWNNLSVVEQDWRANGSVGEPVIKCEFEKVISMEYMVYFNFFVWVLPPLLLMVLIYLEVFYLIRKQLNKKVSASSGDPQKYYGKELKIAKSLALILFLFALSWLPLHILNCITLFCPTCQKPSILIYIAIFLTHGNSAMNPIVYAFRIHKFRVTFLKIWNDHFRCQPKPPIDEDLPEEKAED

Adenosine A-1 receptor [2] = target: T2, Adenosine A-1 receptor; assay: Test for affinity for brain adenosine A-1 receptor binding sites ([3H]cyclohexyladenosine displacement, whole brain membranes); settings: ratio of A2 Ki to A1 Ki
Adenosine A-1 receptor [3] = target: T2, Adenosine A-1 receptor; assay: biochemical
A-1 receptors = settings: read-out: Ki at the A-1 receptors in brain membranes; cited from earlier work

Row | Compound | Ki (adenosine A-2 receptors) [nM] | A2/A1 (Adenosine A-1 receptor [2]) | other results
1 | 3,7-Dihydro-8-(1-phenylethyl-2-phenylethyl)-1,3-dipropyl-1H-purine-2,6-dione | 2600 | 37 | Ki (Adenosine A-1 receptor [1]): 71 nM
2 | CCCC(Cc1ccccc1)c1nc2c(=O)n(CCC)c(=O)n(CCC)c2[nH]1 (racemic) [3,7-Dihydro-8-[1-(phenylmethyl)butyl]-1,3-dipropyl-1H-purine-2,6-dione] | 608 |  | 
3 | CCCn1c(=O)c2[nH]c(C(C)Cc3ccccc3)nc2n(CCC)c1=O (racemic) [3,7-Dihydro-8-[(±)-1-methyl-2-phenylethyl]-1,3-dipropyl-1H-purine-2,6-dione] | 644 |  | 
4 | CCCn1c(=O)c2[nH]c(C(CC)c3ccccc3)nc2n(CCC)c1=O (racemic) [3,7-dihydro-8-[(±)-phenylpropyl]-1,3-dipropyl-1H-purine-2,6-dione] | 1100 | 216 | Ki (Adenosine A-1 receptor [3]): 5.1 nM
5 | CCCn1c(=O)c2[nH]c([C@@H](CC)c3ccccc3)nc2n(CCC)c1=O [3,7-Dihydro-8-[(S)-phenylpropyl]-1,3-dipropyl-1H-purine-2,6-dione] | 1560 | 30 | Ki (Adenosine A-1 receptor [3]): 52 nM
6 | C=CCn1c(=O)c2[nH]c(C(C)c3ccccc3)nc2n(CC=C)c1=O (stereo not drawn) [3,7-dihydro-8-(1-phenylethyl)-1,3-di-2-propenyl-1H-purine-2,6-dione] | 2400 | 119 | Ki (Adenosine A-1 receptor [3]): 20 nM
7 | CCCn1c(=O)c2nc(C(C)c3ccccc3)[nH]c2n(CCC)c1=O (stereo not drawn) [3,7-dihydro-8-(1-phenylethyl)-1,3-dipropyl-1H-purine-2,6-dione] | 1600 |  | 
8 | CCCn1c(=O)c2[nH]c(C3Cc4ccccc4C3)nc2n(CCC)c1=O [3,7-dihydro-8-(2-indanyl)-1,3-dipropyl-1H-purine-2,6-dione] | 7100 |  | 
9 | CCCn1c(=O)c2nc(C(CO)Cc3ccccc3)[nH]c2n(CCC)c1=O (stereo not drawn) [3,7-dihydro-8-[1-(hydroxymethyl)-2-phenylethyl]-1,3-dipropyl-1H-purine-2,6-dione] | 3900 |  | 
10 | CCCn1c(=O)c2nc(C(CC)Cc3ccccc3)[nH]c2n(CCC)c1=O (stereo not drawn) [3,7-dihydro-8-[1-(phenylmethyl)propyl]-1,3-dipropyl-1H-purine-2,6-dione] | 71700 |  | 
11 | CCCn1c(=O)c2[nH]c([C@H](C)Cc3ccccc3)nc2n(CCC)c1=O [3,7-dihydro-8-[(1R)-1-methyl-2-phenylethyl]-1,3-dipropyl-1H-purine-2,6-dione] | 157 |  | 
12 | CCCn1c(=O)c2nc([C@@H](C)Cc3ccccc3)[nH]c2n(CCC)c1=O [3,7-dihydro-8-[(1S)-1-methyl-2-phenylethyl]-1,3-dipropyl-1H-purine-2,6-dione] | 848 |  | 
13 | CCCn1c(=O)c2[nH]c([C@H](CC)c3ccccc3)nc2n(CCC)c1=O [3,7-dihydro-8-[(R)-phenylpropyl]-1,3-dipropyl-1H-purine-2,6-dione] | 647 | 404 | Ki (Adenosine A-1 receptor [3]): 1.6 nM
14 | CCCn1c(=O)c2[nH]c(-c3ccc(OCC(=O)NCCN)cc3)nc2n(CCC)c1=O [XAC] |  |  | Ki (A-1 receptors): 1.2 ± 0.5 nM
